Columns and labels:
IRAK4 = biological target: T1, IRAK4 (Homo sapiens, UniProt Q9NWZ3); assay: Reaction Biology NanoBRET target engagement assay, IRAK4; assay type: cell-based; conditions: transfected HEK-293 cells
T1 sequence (Q9NWZ3 1-460): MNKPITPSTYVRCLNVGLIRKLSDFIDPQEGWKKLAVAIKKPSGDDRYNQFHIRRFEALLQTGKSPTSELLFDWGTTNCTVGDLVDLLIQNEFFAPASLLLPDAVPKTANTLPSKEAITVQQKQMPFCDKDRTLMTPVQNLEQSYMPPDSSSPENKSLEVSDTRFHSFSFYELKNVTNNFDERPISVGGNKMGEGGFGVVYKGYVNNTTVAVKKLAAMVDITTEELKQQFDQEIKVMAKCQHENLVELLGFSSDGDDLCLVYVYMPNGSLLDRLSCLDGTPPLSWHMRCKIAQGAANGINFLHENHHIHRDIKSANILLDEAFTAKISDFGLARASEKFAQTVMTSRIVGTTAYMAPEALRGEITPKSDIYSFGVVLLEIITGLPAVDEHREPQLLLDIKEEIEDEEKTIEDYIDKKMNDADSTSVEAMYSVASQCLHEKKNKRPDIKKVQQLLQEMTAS
Excerpt: The NanoBRET assay measures kinase engagement in real time in the context of the intact cell. Unlike the previously described biochemical kinase assay methodologies in Examples 26-27, the NanoBRET assay measures the binding and activity characteristics under equilibrium conditions using full-length kinases in the presence of cellular concentrations of ATP in live, uncompromised cells. As such, the assay provides a more relevant assessment of kinase potency and selectivity that would be expected to be observed in the native cellular environment, where potency is often considerably lower than that observed in the isolated biochemical assays (Vasta, J. D. et al., (2018) Cell Chem. Biol. 25, 206-214). The assay uses a Kinase-NanoLuc® fusion vector expressing a kinase protein to which a luciferase tag has been added, a cell-permeant fluorescent NanoBRET™ tracer, a NanoLuc® substrate, and an extracellular NanoLuc® inhibitor. Upon expression of the luciferase-tagged kinase, cells will produce a strong BRET signal only in the presence of the NanoBRET™ tracer. The extracellular NanoLuc® inhibitor ensures that the BRET signal observed emanates only from live cells. Because the BRET signal has tight distance constraints, addition of the test compound will decrease the BRET signal if the compound competes with the NanoBRET™ tracer for binding to the kinase domain. Under the appropriate tracer conditions established by the manufacturer, quantitative intracellular affinity and relative potency can then be determined using Mass Action model equations.
HEK-293 cells were purchased from ATCC. FuGENEHD Transfection Reagent, Kinase-NanoLucfusion plasmids, Transfection Carrier DNA, NanoBRETTracers and dilution buffer, NanoBRETNano-Glo Substrate, Extracellular NanoLucInhibitor were obtained from Promega.
Assays were conducted following Promega assay protocol with some modifications. HEK-293 Cells were transiently transfected with Kinase-NanoLucFusion Vector DNA by FuGENEHD Transfection Reagent. Testing compounds were delivered into 384 well assay plate by Echo 550 (Labcytelnc, Sunnyvale, CA). Transfected cells were harvested and mixed with NanoBRETTracer Reagent and dispensed into 384 well plates and incubated at 37° C. in 5% CO2 cell culture incubator for 1 hour. The NanoBRETNano-Glo Substrate plus Extracellular NanoLucInhibitor Solution were added into the wells of the assay plate and incubated for 2-3 minutes at room temperature. The donor emission wavelength (460 nm) and acceptor emission wavelength (600 nm) were measured in the EnVisionplate reader. The BRET Ratios were calculated. BRET Ratio=[(Acceptor sample÷Donor sample)−(Acceptor no-tracer control÷Donor no-tracer control)]. The IC50 values of compounds were calculated with Prism GraphPad program.
NanoBRET™ Target Engagement Assay Protocol
1. Transient Transfection of HEK-293 Cells NanoLuc® Fusion Vector DNA
• 1). Cultivate HEK-293 cells (70-80% confluence) appropriately prior to assay. Trypsinize and collect HEK-293 cells. • 2). Prepare lipid: DNA complexes as follows: • a. Prepare a […] solution of DNA in Opti-MEM without serum that consists of the following ratios of carrier DNA and DNA encoding NanoLuc® fusion. 9.0 µg/mL of Transfection Carrier DNA, […] of NanoLuc fusion vector DNA and 1 mL of Opti-MEM without phenol red. Mix thoroughly. • b. Add 30 l of FuGENE HD Transfection Reagent into each milliliter of DNA mixture to form lipid: DNA complex. • c. Mix by inversion 10 times. • d. Incubate at ambient temperature for 20 minutes to allow complexes to form. • 3). In a sterile, conical tube, mix 1 part of lipid: DNA complex with 20 parts of HEK-293 cells in suspension. Mix gently by inversion 5 times. • 4). Dispense cells+lipid: DNA complex into a sterile tissue culture dish and incubate for 22-24 hours. 2. Addition of Test Compounds (dry plate shooting)
Each test compound is delivered from the compound source plate to the wells of 384-well white NBS plate by Echo 550.
3. […]

MOLM14 F691L cells = assay: MOLM14 F691L cell viability assay (Cell Titer Glo); assay type: cell-based; conditions: Homo sapiens, MOLM-14, 48 h
Outline: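 MOLM14 cells carrying FLT3 D835Y or F691L were seeded at 1000 cells/well in RPMI-1640 with 20% FBS and dosed at 22 concentrations, 1:2 dilutions from 10 μM. Viability after 48 h by Cell Titer Glo luminescence; 2.3 μM bortezomib as cytotoxic control.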

Row | IC50 (IRAK4) | IC50 (MOLM14 F691L cells) | Structure (SMILES)
1 | 10 nM | 97 nM | O=C1CCCN1c1cn2c(-c3nc(N[C@H]4CNCC[C@@H]4F)c(F)cc3F)cnc2cn1 [Compound 107, 1-[3-[3,5-difluoro-6-[[(3S,4S)-4-fluoro-3-piperidyl]amino]-2-pyridyl]imidazo[1,2-a]pyrazin-6-yl]pyrrolidin-2-one]
2 | 1 nM | 183 nM | O=C1CCCN1c1cn2c(-c3nc(N[C@@H]4CCCNC4)c(F)cc3F)cnc2cn1 [Compound 108, (R)-1-(3-(3,5-difluoro-6-(piperidin-3-ylamino)pyridin-2-yl)imidazo[1,2-a]pyrazin-6-yl)pyrrolidin-2-one]
3 | 2 nM | 54 nM | O=C1CCCN1c1cn2c(-c3cccc(N[C@H]4CNCC[C@@H]4F)n3)cnc2cn1 [Compound 119, 1-(3-(6-(((3S,4S)-4-fluoropiperidin-3-yl)amino)pyridin-2-yl)imidazo[1,2-a]pyrazin-6-yl)pyrrolidin-2-one]
4 | 2 nM | 173 nM | O=C1CCCN1c1cn2c(-c3cccc(N[C@H]4CNC[C@@H]4F)n3)cnc2cn1 [Compound 121, 1-(3-(6-(((3S,4S)-4-fluoropyrrolidin-3-yl)amino)pyridin-2-yl)imidazo[1,2-a]pyrazin-6-yl)pyrrolidin-2-one]
5 | < 0.5 nM | 2050 nM | CC(C)(C)c1cn2c(-c3nc(N[C@H]4CNC[C@@H]4F)c(F)cc3F)cnc2cn1 [Compound 125]
6 | < 0.5 nM | 205 nM | CC(C)(C)c1cn2c(-c3nc(N[C@@H]4CCCNC4)c(F)cc3F)cnc2cn1 [Compound 126, (R)-6-(6-(tert-butyl)imidazo[1,2-a]pyrazin-3-yl)-3,5-difluoro-N-(piperidin-3-yl)pyridin-2-amine]
7 | 0.4 nM | 410 nM | CC(C)(C)c1cn2c(-c3nc(N[C@H]4CNCC[C@@H]4F)c(F)cc3F)cnc2cn1 [Compound 127, 6-(6-(tert-butyl)imidazo[1,2-a]pyrazin-3-yl)-3,5-difluoro-N-((3S,4S)-4-fluoropiperidin-3-yl)pyridin-2-amine]
8 | < 0.5 nM | 163 nM | CC(C)(C)c1cn2c(-c3cccc(N[C@@H]4CCCNC4)n3)cnc2cn1 [Compound 129, (R)-6-(6-(tert-butyl)imidazo[1,2-a]pyrazin-3-yl)-N-(piperidin-3-yl)pyridin-2-amine]
9 | < 0.5 nM | 130 nM | CC(C)(C)c1cn2c(-c3cccc(N[C@H]4CNCC[C@@H]4F)n3)cnc2cn1 [Compound 130, 6-(6-(tert-butyl)imidazo[1,2-a]pyrazin-3-yl)-N-((3S,4S)-4-fluoropiperidin-3-yl)pyridin-2-amine]

— patent US12612410B2 (CHILDREN'S HOSPITAL MEDICAL CENTER, priority 2020, dated 2026)
